# Data from patent US20160039904A1, “STABILIZED SINGLE HUMAN CD4 DOMAINS AND FUSION PROTEINS” (priority 2013, published 2016).
# pIC50: −log10 of the molar value. Where “and” joins values, the source holds several entries; their conditions need not be identical. Identical values can stand only once. Like-named read-outs stand apart in the source and are kept apart here.
# How the values were obtained:
# Type in all cases: cell-based
# HIV-1 CNE15 = settings: Table 7; CNE15, clade BC, R5
# HIV-1 CNE7 = settings: Table 7; CNE7, clade BC, R5
# HIV-1 CNE4 = settings: Table 7; CNE4, clade B′, R5
# HIV-1 CH91 = settings: Table 7; CH91, clade BC, R5
# HIV-1 CNE58 = settings: Table 7; CNE58, clade C, R5
# HIV-1 CNE30 = settings: Table 7; CNE30, clade BC, R5
# HIV-1 CNE17 = settings: Table 7; CNE17, clade C, R5
# HIV-1 CH110 = settings: Table 7; CH110, clade BC, R5
# [1] = tested on: 41 HIV-1 isolates predominantly circulating in China; settings: for pIC50 / IC90: Table 7, all viruses, >750 assigned 800, >250 assigned 300, >100 assigned 150, >28 assigned 30
# HIV-1 CH119 = settings: Table 7; CH119, clade BC, R5
# HIV-1 CNE40 = settings: Table 7; CNE40, clade BC, R5
# HIV-1 CNE64 = settings: Table 7; CNE64, clade B′, R5
# HIV-1 CNE49 = settings: Table 7; CNE49, clade BC, R5
# HIV-1 CNE5 = settings: Table 7; CNE5, clade AE, R5
# HIV-1 CNE9 = settings: Table 7; CNE9, clade B′, R5
# HIV-1 CNE6 = settings: Table 7; CNE6, clade B′, R5
# HIV-1 CNE3 = settings: Table 7; CNE3, clade AE, R5
# HIV-1 CNE14 = settings: Table 7; CNE14, clade B′, R5
# HIV-1 CNE47 = settings: Table 7; CNE47, clade BC, R5
# HIV-1 CNE16 = settings: Table 7; CNE16, clade BC, R5
# HIV-1 CNE53 = settings: Table 7; CNE53, clade BC, R5
# HIV-1 CNE57 = settings: Table 7; CNE57, clade B′, X4
# HIV-1 CNE55 = settings: Table 7; CNE55, clade AE, R5
# HIV-1 CNE66 = settings: Table 7; CNE66, clade C, R5
# HIV-1 CNE1 = settings: Table 7; CNE1, clade B′, X4
# HIV-1 CNE59 = settings: Table 7; CNE59, clade AE, R5
# HIV-1 CNE11 = settings: Table 7; CNE11, clade B′, R5
# HIV-1 AE20 = settings: Table 7; AE20, clade AE, R5
# HIV-1 CNE20 = settings: Table 7; CNE20, clade BC, R5
# HIV-1 CH114 = settings: Table 7; CH114, clade BC, R5
# HIV-1 CNE23 = settings: Table 7; CNE23, clade BC, R5
# HIV-1 CH70 = settings: Table 7; CH70, clade BC, R5
# [2] = read-out: IC50, arithmetic mean
# [3] = read-out: IC90, arithmetic mean
substance,measurement,setting,value
4Dm2m: bispecific multivalent fusion protein of mD1.22 and m36.4; two SEQ ID NO: 20 and two SEQ ID NO: 21 chains,pIC50,HIV-1 CNE15,9.54
same,IC90,HIV-1 CNE15,2.6 nM
same,pIC50,HIV-1 CNE7,9.74
same,IC90,HIV-1 CNE7,1.8 nM
same,pIC50,HIV-1 CNE4,9.96
same,IC90,HIV-1 CNE4,2.4 nM
same,pIC50,HIV-1 CH91,9.41
same,IC90,HIV-1 CH91,10 nM
same,IC90,HIV-1 CNE58,> 28 nM
same,pIC50,HIV-1 CNE30,10.15
same,IC90,HIV-1 CNE30,0.44 nM
same,pIC50,HIV-1 CNE17,9.96
same,IC90,HIV-1 CNE17,2.4 nM
same,pIC50,HIV-1 CH110,9.96
same,IC90,HIV-1 CH110,0.83 nM
same,IC50 geometric mean lower than that of C34,"[1]; 41 isolates, P<0.001",~16 fold
same,IC50 geometric mean lower than that of CD4-Ig,"[1]; 41 isolates, P<0.001",~200 fold
same,IC50 geometric mean lower than that of T20,"[1]; 41 isolates, P=0.002",about 50 fold
same,pIC50,[1]; [2],9.47
same,pIC50,"[1]; read-out: IC50, geometric mean",~9.70 and 9.66
same,IC90,[1]; [3],6.2 nM
same,IC90,"[1]; read-out: IC90, geometric mean",3.5 nM
same,IC90,HIV-1 CH119,3.4 nM
same,pIC50,HIV-1 CNE40,11.00
same,IC90,HIV-1 CNE40,0.11 nM
same,pIC50,HIV-1 CNE64,9.25
same,pIC50,HIV-1 CNE49,10.30
same,IC90,HIV-1 CNE49,0.56 nM
same,pIC50,HIV-1 CNE5,9.17
same,IC90,HIV-1 CNE5,8.7 nM
same,pIC50,HIV-1 CNE9,9.66
same,pIC50,HIV-1 CNE6,9.48
same,IC90,HIV-1 CNE6,2.3 nM
same,pIC50,HIV-1 CNE3,9.41
same,IC90,HIV-1 CNE3,2.8 nM
same,IC90,HIV-1 CNE14,2.4 nM
same,pIC50,HIV-1 CNE47,9.96
same,IC90,HIV-1 CNE47,2.8 nM
same,pIC50,HIV-1 CNE16,10.10
same,IC90,HIV-1 CNE16,1.2 nM
same,pIC50,HIV-1 CNE53,9.62
same,IC90,HIV-1 CNE53,5.5 nM
same,IC90,HIV-1 CNE57,19 nM
same,pIC50,HIV-1 CNE55,9.35
same,IC90,HIV-1 CNE55,10 nM
same,IC90,HIV-1 CNE66,7.7 nM
same,pIC50,HIV-1 CNE1,9.96
same,IC90,HIV-1 CNE1,0.61 nM
same,IC90,HIV-1 CNE59,2.7 nM
same,pIC50,HIV-1 CNE11,9.48
same,IC90,HIV-1 CNE11,2.6 nM
same,pIC50,HIV-1 AE20,9.14
same,pIC50,HIV-1 CNE20,10.30
same,IC90,HIV-1 CNE20,5.3 nM
same,pIC50,HIV-1 CH114,9.96
same,IC90,HIV-1 CH114,4 nM
same,pIC50,HIV-1 CNE23,9.31
same,IC90,HIV-1 CNE23,4.9 nM
same,pIC50,HIV-1 CH70,9.96
same,IC90,HIV-1 CH70,1.2 nM
enfuvirtide,pIC50,HIV-1 CNE15,7.85
same,IC90,HIV-1 CNE15,157 nM
same,pIC50,HIV-1 CNE7,8.37
same,IC90,HIV-1 CNE7,58 nM
same,pIC50,HIV-1 CNE4,8.77
same,IC90,HIV-1 CNE4,14 nM
same,pIC50,HIV-1 CH91,8.07
same,IC90,HIV-1 CH91,310 nM
same,pIC50,HIV-1 CNE58,7.27
same,IC90,HIV-1 CNE58,745 nM
same,pIC50,HIV-1 CNE30,7.59
same,IC90,HIV-1 CNE30,285 nM
same,pIC50,HIV-1 CNE17,7.38
same,IC90,HIV-1 CNE17,676 nM
same,pIC50,HIV-1 CH110,8.37
same,IC90,HIV-1 CH110,262 nM
same,pIC50,[1]; [2],7.43
same,pIC50,"[1]; read-out: IC50, geometric mean",7.96
same,IC90,[1]; [3],277 nM
same,IC90,"[1]; read-out: IC90, geometric mean",123 nM
same,pIC50,HIV-1 CH119,8.70
same,IC90,HIV-1 CH119,25 nM
same,pIC50,HIV-1 CNE40,8.31
same,IC90,HIV-1 CNE40,108 nM
same,pIC50,HIV-1 CNE64,8.72
same,IC90,HIV-1 CNE64,16 nM
same,pIC50,HIV-1 CNE49,8.04
same,IC90,HIV-1 CNE49,236 nM
same,pIC50,HIV-1 CNE5,8.68
same,IC90,HIV-1 CNE5,19 nM
same,pIC50,HIV-1 CNE9,8.77
same,IC90,HIV-1 CNE9,14 nM
same,pIC50,HIV-1 CNE6,8.85
same,IC90,HIV-1 CNE6,15 nM
same,pIC50,HIV-1 CNE3,8.25
same,IC90,HIV-1 CNE3,38 nM
same,pIC50,HIV-1 CNE14,8.01
same,IC90,HIV-1 CNE14,305 nM
same,pIC50,HIV-1 CNE47,8.31
same,IC90,HIV-1 CNE47,42 nM
same,pIC50,HIV-1 CNE16,7.85
same,IC90,HIV-1 CNE16,169 nM
same,pIC50,HIV-1 CNE53,7.29
same,IC90,HIV-1 CNE53,721 nM
same,pIC50,HIV-1 CNE57,8.60
same,IC90,HIV-1 CNE57,24 nM
same,pIC50,HIV-1 CNE55,7.59
same,IC90,HIV-1 CNE55,549 nM
same,pIC50,HIV-1 CNE66,6.89
same,IC90,HIV-1 CNE66,729 nM
same,pIC50,HIV-1 CNE1,8.80
same,IC90,HIV-1 CNE1,17 nM
same,pIC50,HIV-1 CNE59,8.85
same,IC90,HIV-1 CNE59,17 nM
same,pIC50,HIV-1 CNE11,8.46
same,IC90,HIV-1 CNE11,36 nM
same,pIC50,HIV-1 AE20,6.67
same,IC90,HIV-1 AE20,572 nM
same,pIC50,HIV-1 CNE20,8.26
same,IC90,HIV-1 CNE20,41 nM
same,pIC50,HIV-1 CH114,6.99
same,IC90,HIV-1 CH114,> 750 nM
same,pIC50,HIV-1 CNE23,7.82
same,IC90,HIV-1 CNE23,228 nM
same,pIC50,HIV-1 CH70,7.19
same,IC90,HIV-1 CH70,> 750 nM
